Measured values as given in ChEMBL document CHEMBL1140714, “In search of novel agents for therapy of tropical diseases and human immunodeficiency virus” (J Med Chem, 2008).
The source made the active and inactive calls. The rule behind the calls is not given here.

Columns and labels:
[1] = system: Staphylococcus aureus; test: Antibacterial activity against Staphylococcus aureus assessed as inhibition of biofilm formation; format: functional, organism-based
[2] = system: Plasmodium falciparum; test: Antiplasmodial activity against Plasmodium falciparum NF54 after 72 hrs; format: functional, organism-based; settings: NF54, 72 h
[3] = system: Plasmodium falciparum; test: Antiplasmodial activity against Plasmodium falciparum NF54 after 24 hrs; format: functional, organism-based; settings: NF54, 24 h
[4] = system: Leishmania major; test: Antileishmanial activity against Leishmania major MHOM/IL/81/FE/BNI infected in BALB/c mouse; format: functional
[5] = Cytotoxicity against mouse J774.1 cells after 48 hrs; format: cell-based; settings: read-out: ED50
[6] = system: Plasmodium falciparum; test: Inhibition of parasitemia in chloroquine-sensitive Plasmodium falciparum NF54 infected C57BL/6 mice (Mus musculus) after 1 day at 40 uM; format: functional; parameters: scale not given: the % may be the effect or the level left
[7] = system: Plasmodium falciparum; test: Inhibition of parasitemia in chloroquine-sensitive Plasmodium falciparum NF54 infected C57BL/6 mice (Mus musculus) after 2 days at 20 uM; format: functional; parameters: scale not given: the % may be the effect or the level left
[8] = system: Mus musculus; test: Increase in survival of chloroquine-sensitive Plasmodium falciparum NF54 infected intravenously dosed C57BL/6 mice (Mus musculus); format: functional, organism-based
[9] = system: Plasmodium falciparum; test: Antiplasmodial activity against Plasmodium falciparum NF54 infected mice (Mus musculus) after 72 hrs; format: functional, organism-based; settings: NF54, 72 h
[10] = system: Trypanosoma brucei brucei; test: Antitrypanosomal activity against Trypanosoma brucei brucei TC221; format: functional; settings: read-out: ED50 (the source's name)
[11] = system: Plasmodium falciparum; test: Inhibition of parasitemia in chloroquine-sensitive Plasmodium falciparum NF54 infected C57BL/6 mice (Mus musculus) after 4 days; format: functional; parameters: scale not given: the % may be the effect or the level left
[12] = system: Mus musculus; test: Increase in survival of chloroquine-sensitive Plasmodium falciparum NF54 infected perorally dosed C57BL/6 mice (Mus musculus); format: functional, organism-based
[13] = system: Human immunodeficiency virus 1; test: Antiviral activity against HIV1 BaL replication in PM1 cells at 5 uM; format: functional, organism-based
[14] = system: Human immunodeficiency virus 1; test: Antiviral activity against HIV1 NL4/3 replication in PM1 cells at 6 uM; format: functional, organism-based

Structure (SMILES) | Activity [1] | IC50 [2] [µM] | IC50 [3] [µM] | ED50 [4] [µM] | CC50 at 48 h [5] [µM] | Activity [6] [%] | Activity [7] [%] | Activity [8] | IC50 [9] [µM] | EC50 [10] [µM] | Activity [11] [%] | Activity [12] | Activity [13] | Activity [14]
COC(=O)C1C(=O)C(C(=O)OC)[C@H](c2ccccn2)N(Cc2ccccc2)[C@@H]1c1ccccn1 (stereo partly specified) | inactive | 10.9 | 10.2 | 55.99 | 34 | 0 | 0 | Active |  |  |  |  |  | 
C=CCN1[C@H](c2ccc([N+](=O)[O-])cc2)C(C(=O)OCC)C(=O)C(C(=O)OCC)[C@@H]1c1ccc([N+](=O)[O-])cc1 (stereo partly specified) | inactive |  |  |  | > 100 |  |  |  | 11 | 3.06 | 0 | Active | Active | Active
